Measurements as given in patent US7723339B2, “Combination comprising a signal transduction inhibitor and an epothilone derivative” (Novartis AG, priority 2001, dated 2010).

Tests used:
[1] = test system: KAT-4 mouse thyroid carcinoma; test: KAT-4 thyroid carcinoma tumors in SCID mice; assay type: in vivo; settings: for effect on tumor growth: STI571 100 mg/kg gavage once daily from day 3, EPO906 0.3 mg/kg s.c. days 6, 13, 20
Protocol: Study on the Effects of Combining Epothilone B Treatment of KAT-4 Mouse Thyroid Carcinoma with Treatment with STI571
Epothilone B is administered s.c. once weekly. STI571, at a dose of 100 mg/kg, is administered by gavage and given once daily. Tumor volume is determined by mesurements with calipers.
In the study four groups of tumor bearing mice are analyzed: control treated mice, mice treated with either STI571 (100 mg/kg) or 0.3 mg/kg of EPO906 alone and mice treated with both drugs. Treatment is performed on mice with an average starting size of tumor of approximatly 100 mm^3. EPO906 is given at days 6, 13 and 20 and STI571 is given once daily from day 3.

[2] = test system: rat C6 glioma tumor xenografts; test: Rat C6 glioma tumor xenografts in female BALB/C mice; assay type: in vivo; settings: for Delta tumor volumes (mean mm^3±SEM): q7d (i.v., days 3 and 10) alone, control 1289±178
Protocol: STI571 Alone, Epothilone B (EPO906) Alone and the Combination of STI571 Plus Epothilone B Versus Rat C6 Glioma Tumor Xenografts in Female BALB/C Mice
Tumors are initiated by the s.c. injection of 1×10^6 rat C6 cells (n=8/group). When the tumors reaches ˜75 mm^3, STI571 treatment is begun at 200 mg/kg, p.o., q24h.

SMILES	effect on tumor growth [1]	final tumor size as % of control tumors ([1]; end of experiment, STI571 100 mg/kg once daily, EPO906 0.3 mg/kg once weekly)	Delta tumor volumes (mean mm^3±SEM) ([2]; EPO906 1 mg/kg)	Delta tumor volumes (mean mm^3±SEM) ([2]; EPO906 2 mg/kg)	Delta tumor volume ratio treated/controls ([2]; STI571 200 mg/kg p.o. q24h, EPO906 2 mg/kg q7d)
C/C(=C\c1csc(C)n1)[C@@H]1C[C@@H]2O[C@]2(C)CCC[C@H](C)[C@H](O)[C@@H](C)C(=O)C(C)(C)[C@@H](O)CC(=O)O1 [EPO906, epothilone B]	statistically significant reduction of tumor growth	69%	864±115 mm^3	419±116 mm^3	0.325
Cc1ccc(NC(=O)c2ccc(CN3CCN(C)CC3)cc2)cc1Nc1nccc(-c2cccnc2)n1 [STI571, N-{5-[4-(4-methyl-piperazino-methyl)-benzoylamido]-2-methylphenyl}-4-(3-pyridyl)-2-pyrimidine-amine]	no effect				
